The source of these data is patent US8859596B2, “Compounds as cannabinoid receptor ligands” (priority 2008, dated 2014).

Like-named read-outs stand apart in the source and are kept apart here.

Test [1] deals with T1, rat CB2 (Rattus norvegicus (Rat), UniProt Q9QZN9). Briefly: rat CB2 radioligand binding assay ([3H]CP 55,940 competition). The method, then: (§1) The CB1 and CB2 radioligand binding assays described herein are utilized to ascertain the affinity of compounds of the present application for binding to CB2 relative to CB1 receptors.
T1 sequence (Q9QZN9 whole entry): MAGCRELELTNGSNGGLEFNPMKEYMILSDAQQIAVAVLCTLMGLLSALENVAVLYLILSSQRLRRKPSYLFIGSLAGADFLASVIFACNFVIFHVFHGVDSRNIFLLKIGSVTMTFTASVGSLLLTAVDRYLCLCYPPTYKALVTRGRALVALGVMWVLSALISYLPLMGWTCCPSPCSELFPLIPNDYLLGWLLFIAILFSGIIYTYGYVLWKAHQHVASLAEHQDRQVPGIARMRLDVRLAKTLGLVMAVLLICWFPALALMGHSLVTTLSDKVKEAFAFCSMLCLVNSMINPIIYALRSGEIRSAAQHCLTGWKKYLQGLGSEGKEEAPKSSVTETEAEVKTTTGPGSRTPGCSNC
HEK293 cells stably expressing rat CB2 receptors were grown until a confluent monolayer was formed. Briefly, the cells were harvested and homogenized in TE buffer (50 mM Tris-HCl, 1 mM MgCl2, and 1 mM EDTA) using a polytron for 2×10 second bursts in the presence of protease inhibitors, followed by centrifugation at 45,000×g for 20 minutes. The final membrane pellet was re-homogenized in storage buffer (50 mM Tris-HCl, 1 mM MgCl2, and 1 mM EDTA and 10% sucrose) and frozen at −78° C. until used. Saturation binding reactions were initiated by the addition of membrane preparation (protein concentration of 20 μg/well for rat CB2) into wells of a deep well plate containing [^3H]CP 55,940 (120 Ci/mmol, a nonselective CB agonist commercially available from Tocris) in assay buffer (50 mM Tris, 2.5 mM EDTA, 5 mM MgCl2, and 0.5 mg/mL fatty acid free BSA, pH 7.4). After 45 min incubation at 30° C., binding reaction was terminated by the addition of 300 μl/well of cold assay buffer followed by rapid vacuum filtration through a UniFilter-96 GF/C filter plates (pre-soaked in 1 mg/mL BSA for 2 hours). The bound activity was counted in a TopCount using Microscint-20. Saturation experiments were conducted with twelve concentrations of [^3H]CP 55,940 ranging from 0.01 to 8 nM. Competition experiments were conducted with 0.5 nM [^3H]CP 55,940 and five concentrations of displacing ligands selected from the range of 0.01 nM to […] addition of 10 μM unlabeled CP 55,940 (Tocris, Ellisville, Mo.) was used to assess nonspecific binding.

The target in test [2] is T1, rat CB2. Briefly: CB2 cyclase functional assay (HitHunter cAMP). The class given is cell-based. As to conditions: HEK cells, forskolin 18 μM. On the procedure: (§2) The cyclase functional assays were performed using the HitHunter™ cAMP assay kit from DiscoveRx (Fremont, Calif.) according to vendor's protocol. Briefly, HEK cells expressing CB2 or CB1 receptors (rat or human) were detached using cell dissociation buffer (Invitrogen, Carlsbad, Calif.), dispersed and placed in suspension at 10,000 cells per well in 96 well plates prior to the assay. Cell suspensions were incubated at 37° C. for 20 min with variable concentrations of test ligands and or 10 μM CP 55,940-positive control in the presence of a fixed concentration of forskolin (18 μM for rat CB2 and 37 μM for rat CB1) in Dulbescco's phosphate-buffered saline (Invitrogen, Carlsbad, Calif.) supplemented with bovine serum albumin (0.01% final concentration). The reactions were terminated by the addition of lysis buffer and the luminescence was detected following the procedure according to the manufacturer's instructions. EC50 values were calculated using sigmoidal dose-response curve fitting from Prism (GraphPad).

The target of another test is rat CB1 (Rattus norvegicus (Rat), UniProt P20272). Briefly: CB1 cyclase functional assay (HitHunter cAMP). The class given is cell-based. As to conditions: HEK cells, forskolin 37 μM; read-out: rCB1 cyclase (EC50). The method, then:
as §2

A further test addresses human CB2 receptors (Homo sapiens (Human), UniProt P34972). Briefly: human CB2 radioligand binding assay ([3H]CP 55,940 competition). The method, then:
as §1
HEK293 cells stably expressing human CB2 receptors were grown until a confluent monolayer was formed. Briefly, the cells were harvested and homogenized in TE buffer (50 mM Tris-HCl, 1 mM MgCl2, and 1 mM EDTA) using a polytron for 2×10 second bursts in the presence of protease inhibitors, followed by centrifugation at 45,000×g for 20 minutes. The final membrane pellet was re-homogenized in storage buffer (50 mM Tris-HCl, 1 mM MgCl2, and 1 mM EDTA and 10% sucrose) and frozen at −78° C. until used. Saturation binding reactions were initiated by the addition of membrane preparation (protein concentration of 5 μg/well for human CB2) into wells of a deep well plate containing [^3H]CP 55,940 (120 Ci/mmol, a nonselective CB agonist commercially available from Tocris) in assay buffer (50 mM Tris, 2.5 mM EDTA, 5 mM MgCl2, and 0.5 mg/mL fatty acid free BSA, pH 7.4). After 90 min incubation at 30° C., binding reaction was terminated by the addition of 300 μL/well of cold assay buffer followed by rapid vacuum filtration through a UniFilter-96 GF/C filter plates (pre-soaked in 1 mg/mL BSA for 2 hours). The bound activity was counted in a TopCount using Microscint-20. Saturation experiments were conducted with twelve concentrations of [^3H]CP 55,940 ranging from 0.01 to 8 nM. Competition experiments were conducted with 0.5 nM [^3H]CP 55,940 and five concentrations (0.01 nM to 10 μM) of displacing ligands. The addition of 10 μM unlabeled CP 55,940 (Tocris, Ellisville, Mo.) was used to assess nonspecific binding.

[3] abbreviates: HEK293 membranes, 0.5 nM [3H]CP 55,940, read-out: rat CB2 (Ki).
Setting [4] is: HEK293 membranes, 0.5 nM [3H]CP 55,940, read-out: human CB2 (Ki).

Chain of human CB2 receptors (P34972 whole entry): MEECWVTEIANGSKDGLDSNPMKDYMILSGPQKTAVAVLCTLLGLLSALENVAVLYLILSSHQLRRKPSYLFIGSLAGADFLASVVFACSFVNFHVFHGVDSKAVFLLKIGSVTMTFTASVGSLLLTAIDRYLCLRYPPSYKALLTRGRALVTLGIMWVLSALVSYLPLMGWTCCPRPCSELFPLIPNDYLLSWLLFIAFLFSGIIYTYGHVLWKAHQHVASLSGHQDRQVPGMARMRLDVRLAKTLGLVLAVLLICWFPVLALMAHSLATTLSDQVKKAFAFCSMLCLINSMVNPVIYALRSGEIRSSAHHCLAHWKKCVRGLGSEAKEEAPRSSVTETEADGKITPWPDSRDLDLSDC

By Ki is commonly meant a measure of affinity in units of concentration, obtained from inhibition or displacement. One may read the EC50 as the concentration that produces a half-maximal response. `CCCCn1nc(C(C)(C)C)s/c1=N\C(=O)c1cc(C(F)(F)F)ccc1ONC(C)(C)C` [Example 34, 2-[(tert-butylamino)oxy]-N-[(2Z)-3-butyl-5-tert-butyl-1,3,4-thiadiazol-2(3H)-ylidene]-5-(trifluoromethyl)benzamide]: the inhibitory constant (Ki) at rat CB2 [1] (setting [3]) was found to be 1.9 nM; at human CB2 receptors (setting [4]), 11 nM. Also, the EC50 at rat CB2 [2] was 0.43 nM; on rat CB1, above 27000 nM.
For `Cn1c(C(C)(C)C)c/c(=N\C(=O)c2cc(C(F)(F)F)ccc2ONC(C)(C)C)n1C[C@H]1CCCO1` [Example 142, 2-[(tert-butylamino)oxy]-N-{(3E)-5-tert-butyl-1-methyl-2-[(2R)-tetrahydrofuran-2-ylmethyl]-1,2-dihydro-3H-pyrazol-3-ylidene}-5-(trifluoromethyl)benzamide], the Ki turned out to be 9.4 nM on rat CB2 [1] and 24 nM at human CB2 receptors. In addition, the EC50 at rat CB1 was above 27000 nM.
Regarding `CCCCn1nc(C(C)(C)C)s/c1=N\C(=O)c1cc(C(F)(F)F)ccc1NNC(=O)c1ccncc1` [Example 191, N-[(2Z)-3-butyl-5-tert-butyl-1,3,4-thiadiazol-2(3H)-ylidene]-2-(2-isonicotinoylhydrazino)-5-(trifluoromethyl)benzamide], the Ki worked out at 0.9 nM at rat CB2 [1] (setting [3]) and 0.8 nM on human CB2 receptors (setting [4]).
Take `CCCCn1nc(C(C)(C)C)s/c1=N\C(=O)c1cc(C(F)(F)F)ccc1NNC(=O)OC` [Example 192, methyl 2-[2-({[(2Z)-3-butyl-5-tert-butyl-1,3,4-thiadiazol-2(3H)-ylidene]amino}carbonyl)-4-(trifluoromethyl)phenyl]hydrazinecarboxylate]: the Ki on rat CB2 [1] and at human CB2 receptors was 0.7 nM throughout.
As for `CCCCn1nc(C(C)(C)C)s/c1=N\C(=O)c1cc(C(F)(F)F)ccc1NNC(=O)C(C)(C)C` [Example 193, N-[(2Z)-3-butyl-5-tert-butyl-1,3,4-thiadiazol-2(3H)-ylidene]-2-[2-(2,2-dimethylpropanoyl)hydrazino]-5-(trifluoromethyl)benzamide], the Ki at rat CB2 [1] (setting [3]) was 0.5 nM; at human CB2 receptors (setting [4]) it was 0.4 nM.
For the compound `CCCCn1/c(=N/C(=O)c2cc(C(F)(F)F)ccc2O/N=C(\C)C(F)(F)F)cc(C(C)(C)C)n1C` [Example 194, N-[(3E)-2-butyl-5-tert-butyl-1-methyl-1,2-dihydro-3H-pyrazol-3-ylidene]-5-(trifluoromethyl)-2-({[(1E)-2,2,2-trifluoro-1-methylethylidene]amino}oxy)benzamide], the values for the Ki on rat CB2 [1] (setting [3]) and at human CB2 receptors (setting [4]) were 40 nM and 12 nM, respectively.
Turning to `CCCCn1nc(C(C)(C)C)s/c1=N\C(=O)c1cc(C(F)(F)F)ccc1ON=C(N)c1ccccn1` [Example 196, 2-({[amino(pyridin-2-yl)methylene]amino}oxy)-N-[(2Z)-3-butyl-5-tert-butyl-1,3,4-thiadiazol-2(3H)-ylidene]-5-(trifluoromethyl)benzamide], the inhibition constant Ki was 4.1 nM on rat CB2 [1] (setting [3]) and 18 nM on human CB2 receptors (setting [4]).
In the case of `CCCCn1nc(C(C)(C)C)s/c1=N\C(=O)c1cc(C(F)(F)F)ccc1NNC(=O)c1cccnc1` [Example 197, N-[(2Z)-3-butyl-5-tert-butyl-1,3,4-thiadiazol-2(3H)-ylidene]-2-[2-(pyridin-3-ylcarbonyl)hydrazino]-5-(trifluoromethyl)benzamide], the Ki on rat CB2 [1] (setting [3]) worked out at 0.7 nM; at human CB2 receptors (setting [4]), 1.1 nM.
As for `CCCCn1/c(=N/C(=O)c2cc(C(F)(F)F)ccc2NNC(=O)C(C)(C)C)cc(C(C)(C)C)n1C` [Example 198, N-[(3E)-2-butyl-5-tert-butyl-1-methyl-1,2-dihydro-3H-pyrazol-3-ylidene]-2-[2-(2,2-dimethylpropanoyl)hydrazino]-5-(trifluoromethyl)benzamide], the Ki was 1.7 nM at rat CB2 [1] (setting [3]) and 0.4 nM at human CB2 receptors (setting [4]).
Regarding `CCCCn1/c(=N/C(=O)c2cc(C(F)(F)F)ccc2NNC(=O)c2cccnc2)cc(C(C)(C)C)n1C` [Example 199, N-[(3E)-2-butyl-5-tert-butyl-1-methyl-1,2-dihydro-3H-pyrazol-3-ylidene]-2-[2-(pyridin-3-ylcarbonyl)hydrazino]-5-(trifluoromethyl)benzamide], the Ki came to 2.2 nM at rat CB2 [1] (setting [3]) and 2.5 nM on human CB2 receptors (setting [4]).
For the compound `CCCCn1/c(=N/C(=O)c2cc(C(F)(F)F)ccc2NNC(=O)c2ccncc2)cc(C(C)(C)C)n1C` [Example 200, N-[(3E)-2-butyl-5-tert-butyl-1-methyl-1,2-dihydro-3H-pyrazol-3-ylidene]-2-(2-isonicotinoylhydrazino)-5-(trifluoromethyl)benzamide], the inhibition constant Ki on rat CB2 [1] (setting [3]) is 1.3 nM; at human CB2 receptors (setting [4]), 0.7 nM.
The corresponding values for `CCCCn1nc(C(C)(C)C)s/c1=N\C(=O)c1cc(C(F)(F)F)ccc1NNC(N)=O` [Example 201, 2-[2-({[(2Z)-3-butyl-5-tert-butyl-1,3,4-thiadiazol-2(3H)-ylidene]amino}carbonyl)-4-(trifluoromethyl)phenyl]hydrazinecarboxamide] are 5.2 nM and 47 nM.
For `CCCCn1nc(C(C)(C)C)s/c1=N\C(=O)c1cc(C(F)(F)F)ccc1NNCc1ccccc1` [Example 202, 2-(2-benzylhydrazino)-N-[(2Z)-3-butyl-5-tert-butyl-1,3,4-thiadiazol-2(3H)-ylidene]-5-(trifluoromethyl)benzamide], the Ki on rat CB2 [1] (setting [3]) was 36 nM; at human CB2 receptors (setting [4]), 43 nM.
In the case of `CCCCn1nc(C(C)(C)C)s/c1=N\C(=O)c1cc(C(F)(F)F)ccc1ON=C(N)c1ccncc1` [Example 203, 2-({[amino(pyridin-4-yl)methylene]amino}oxy)-N-[(2Z)-3-butyl-5-tert-butyl-1,3,4-thiadiazol-2(3H)-ylidene]-5-(trifluoromethyl)benzamide], the figures for the inhibition constant (Ki) on rat CB2 [1] (setting [3]) and on human CB2 receptors (setting [4]) were 33 nM and 68 nM, respectively.
On to `CCCCn1nc(C(C)(C)C)s/c1=N\C(=O)c1cc(C(F)(F)F)ccc1ON=C(N)c1cccnc1` [Example 204, 2-({[amino(pyridin-3-yl)methylene]amino}oxy)-N-[(2Z)-3-butyl-5-tert-butyl-1,3,4-thiadiazol-2(3H)-ylidene]-5-(trifluoromethyl)benzamide], for which the Ki worked out at 13 nM on rat CB2 [1] (setting [3]) and 87 nM at human CB2 receptors (setting [4]).
As to `CCCCn1nc(C(C)(C)C)s/c1=N\C(=O)c1cc(C(F)(F)F)ccc1N(/N=C/c1cccc(C)n1)C(=O)OC(C)(C)C` [Example 205, tert-butyl (2E)-1-[2-({[(2Z)-3-butyl-5-tert-butyl-1,3,4-thiadiazol-2(3H)-ylidene]amino}carbonyl)-4-(trifluoromethyl)phenyl]-2-[(6-methylpyridin-2-yl)methylene]hydrazinecarboxylate], the Ki on rat CB2 [1] amounted to 43 nM; at human CB2 receptors, 44 nM.
